Test results as given in patent US10155742B2, “Halofuginol derivatives and their use in cosmetic and pharmaceutical compositions” (President and Fellows of Harvard College, priority 2012, dated 2018).

Columns and labels:
[1] = tested on: Th17-driven multiple sclerosis model; conditions: Sundrud et al. 2009; cited from earlier work
[2] = tested on: CD4+ T cell, CD8+ T cell, and B220+ B cell activation; conditions: from PCT/US08/09774; cited from earlier work
[3] = tested on: primary human prostate stromal (hPrSc) cells, col1a1; experiment: Type I collagen (col1a1) mRNA in primary human prostate stromal cells; assay type: cell-based; conditions: treated twice for 48 hours, FIG. 27
Procedure: Primary human prostate stromal (hPrSc) cells were left in low-serum media (0.2%) for 24 hours, and treated consecutively twice for 48 hours, halofuginone (HF) or halofuginol (HFol) at the concentrations indicated. Relative mRNA levels of the myofibroblastic markeralpha 1 collagen type 1 (col1a1) was measured by quantitative real-time PCR using glyceraldehyde-3-phosphate dehydrogenase (GAPDH) as internal control.

[4] = tested on: mouse embryo fibroblasts (MEFs); experiment: HF and proline effects on mouse embryo fibroblasts (gene expression, ECM protein production, protein synthesis); assay type: cell-based
Procedure: A) Primary murine CD4^+ CD25^− T cells were activated through the T-cell receptor in Th17 polarizing conditions (Sundrud et al. Science 324:1334-8 (2009)) in the presence of either 10 nM MAZ1310 or HF and the following amino acid supplements: 10× concentration of essential (EAA) or non-essential (NEAA) amino acids mixtures (Biowhittaker or Invitrogen, respectively), or 10× concentrations (1 mM) of indicated individual amino acids. Data are presented as mean percentage of Th17 (IL-17+ IFNg−) cells +/−SD from triplicate wells. B) Th17 differentiation was assayed as described above, in the absence or presence of HF or borrelidin, with or without 1 mM threonine or proline supplementation. C) MEFs were treated with or without HF (50 nM) and/or proline (2 mM) for 4 hours (CHOP, S100A4) or 24 hours (ColIA1, Col1A2). mRNA expression was normalized to expression of TBP and is shown relative to untreated control. […] Confidence intervals (p-value) for the effect of HF alone versus HF+Pro were determined using a two-tailed Student's t test. Data are representative of two separate experiments. D) Cells were pre-incubated for 24 hours with HF and proline as indicated, and secretion of Type I procollagen was measured after 24 hours in conditioned medium of cells plated by Western blot and quantitated using Image J software (top panel). Total protein synthesis was measured as TCA-precipitable ^35S in a scintillation counter (bottom panel).
MEFs were incubated for 4 hours in HF with or without 2 mM proline, to measure new collagen production in conditioned medium. Cells were washed into fresh DMEM/0.2% FBS, and proline or HF re-added, and either conditioned medium (for Type I procollagen) or total cell lysate (for fibronectin, c-actin) and were harvested after 24 hours. Triplicate plates of cells for each condition were treated, harvested, and blotted in parallel. Protein levels were assayed by Western blot, detected using chemiluminescence, and film exposure was quantitated using Image J software.
For assays of HF and proline effects on fibroblasts, mouse embryo fibroblasts were grown in 10% FCS/DMEM. For studies of TGFβ signaling, ^35S methionine incorporation into total protein, and collagen production, cells were shifted into 0.2% FCS/DMEM 24 hours before the addition of HF or proline. For examination of protein expression and phosphorylation, cells were lysed in RIPA with 5 mM EDTA, 1× PhosStop (Roche), and 1× Complete protease inhibitor mix (Roche), and assayed by Western blot as described above. For analysis of gene expression, cells were lysed in Trizol (Invitrogen) and gene expression quantitated by quantitative RT-PCR using the Roche UPR Light-Cycler system.

[5] = molecular target: T1, prolyl tRNA synthetase domain of human EPRS (ProRS) (Homo sapiens, UniProt P07814); experiment: biochemical
T1 sequence (P07814 998-1512 limits assumed): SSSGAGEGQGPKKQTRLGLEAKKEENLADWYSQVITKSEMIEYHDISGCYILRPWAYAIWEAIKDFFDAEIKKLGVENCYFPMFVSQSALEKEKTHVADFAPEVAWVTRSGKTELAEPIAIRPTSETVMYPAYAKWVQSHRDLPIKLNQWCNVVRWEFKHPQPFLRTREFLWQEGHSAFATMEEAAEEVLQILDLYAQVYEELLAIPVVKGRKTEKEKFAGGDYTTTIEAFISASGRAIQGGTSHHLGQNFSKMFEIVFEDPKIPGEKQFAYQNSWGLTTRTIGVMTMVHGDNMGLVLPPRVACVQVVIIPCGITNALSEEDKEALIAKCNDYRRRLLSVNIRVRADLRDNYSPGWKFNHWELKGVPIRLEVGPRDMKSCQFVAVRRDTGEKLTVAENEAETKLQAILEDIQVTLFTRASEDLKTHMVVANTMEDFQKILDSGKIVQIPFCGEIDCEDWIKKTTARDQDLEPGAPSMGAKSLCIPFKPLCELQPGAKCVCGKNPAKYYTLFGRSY
Procedure: Activity of the Prolyl tRNA synthetase domain of EPRS (ProRS) was measured as ^3H Pro incorporation into the charged tRNA pool. […] Purified enzyme was visualized as a single band by Laemmli gel electrophoresis/Coomassie staining.
Purified enzyme was visualized as a single band by Laemmli gel electrophoresis/Coomassie staining. […] In preliminary experiments, the assay was established to be linear over the time (6 min) and conditions used (30 degrees, 2 mM ATP, 1 μg/μl total tRNA purified from rabbit liver).
For the rapid, quantitative isolation of aminoacylated tRNA^pro from synthetase reaction mixtures, reactions were stopped with 100 μl of ice cold 20 mM MOPS pH6.2, 200 mM NaCl, 10 mM EDTA, 30% Glycerol and placed on ice. Samples were added to 15 μl of packed Mono Q HP beads (GE Healthcare) equilibrated in the same buffer. Samples were incubated with beads on ice for 10 min, beads were pelleted by 5 sec centrifugation in a tabletop microfuge and washed 3× 1 ml of wash buffer (20 mM MOPS pH6.2, 50 mM NaCl), and recovered pellets counted in a liquid scintillation counter. Background binding of ^3H Pro to beads (using reaction mix with either no enzyme added or no tRNA added) was negligible (20-40 cpm).

O=C(C[C@H]1NCCC[C@@H]1O)Cn1cnc2cc(Br)c(Cl)cc2c1=O (racemic) [HF, 7-bromo-6-chloro-3-[3-(3-hydroxy-2-piperidinyl)-2-oxopropyl]-4(3H)-quinazolinone]
development of disease [1]: inhibits
concentration that generally inhibits CD4+ T cell, CD8+ T cell, and B220+ B cell activation [2]: 20 to 40 nM
Type 1 collagen expression in fibroblasts in culture [3]: inhibit
production of secreted Type I procollagen and fibronectin ([4]; 24 hours treatment, FIG. 6D): dramatically inhibited
mRNA levels of Col1A1, Col1A2, and S100A4 ([4]; MEFs, HF 50 nM, 4 or 24 hours, FIG. 6C): inhibits
expression of mRNA encoding CHOP ([4]; MEFs, HF 50 nM, 4 hours, FIG. 6C): stimulated
35S-methionine incorporation into total protein ([4]; same doses as ECM protein inhibition, FIG. 6D): did not significantly change
Ki [5]: 18.3 nM
